Source: publication PMC9729826, “Hypoaminoacidemia underpins glucagon-mediated energy expenditure and weight loss” (Cell Reports Medicine, 2022)
Starred links: 1 amine or outer side, 2 acyl side, 3 side chain; linkers in the order of their positions; H or OH if unused. Non-standard residues stand in square brackets, D forms with d. Residues, ends and D or L forms follow the SMILES beside them. Groups on a side chain read outwards from the residue. *: point of attachment. C18 diacid = O=C(O)CCCCCCCCCCCCCCCCC(=O)*; γGlu = O=C(O)[C@H](CCC(=O)[*:2])N[*:1]; Aib = CC(C)(N)C(=O)O

Key:
[1] = Pharmacokinetic profile of G108 in rats (plasma radioimmunoassay); details: rat, in vivo, sc, male Wistar rats, single 0.5 mg subcutaneous dose, sampled 1.5-72 h, n = 4, read-out: time at which peak plasma concentrations were achieved
Description: 10-week-old male Wistar rats (N = 4) were administered with 0.5 mg G108 via 100 μL subcutaneous injection. Tail venesection was performed to collect 100 μL blood samples prior to injection and at 1.5, 3, 6, 24, 48 and 72 h after injection. Blood samples were immediately frozen on ice, centrifuged at 8000 × g for 10 min at 4°C, and the plasma supernatant collected. Samples were stored at −20°C.
An in-house radioimmunoassay was used to determine peptide concentrations in the rat plasma. Antiserum (RA553/3) was produced in rabbits against the purified glucagon (1–16) fragment which specifically cross-reacted with the N-terminal glucagon-like sequence of G108. Direct iodination was used to produce Iodine-125 glucagon which was purified by reverse phase high pressure liquid chromatography. The assay was performed in a total volume of 700 μL of 0.06 M phosphate EDTA buffer containing 0.3% BSA. All samples were assayed in duplicate and the standard curve was set using 5 pmol/mL G108 in assay buffer. The assay was incubated for 3 nights at 4°C prior to separation via charcoal into free and antibody-bound label. A γ-counter was used to count the pellet and supernatant and the ratio of free to bound label was calculated. The plasma peptide concentration was calculated using two phase exponential decay with respect to the relevant standard curve.

C57BL/6 mice = assay: Single-dose G108 EE and plasma amino acid study in metabolic cages; assay type: in vivo, mouse; details: for plasma total amino acids after a single injection / energy expenditure after a single injection: mice on SP diet
Description: Lean 10-week-old C57BL/6 mice (N = 20) were provided ad libitum a 60 kcal% high fat diet (diet D12492, Table S2) for 10 days. They were then switched to either a standard protein high fat diet (D08091803) or a high protein high fat diet (D08091801) (N = 10/group) for 1 week prior to commencing the study. All mice were then placed into metabolic cages, individually housed, and allowed to acclimatise for 24 h. On day 2, baseline metabolic readings were obtained prior to single dose administration of 7.5 nmol/kg G108 on day 3 at 9 am. Metabolic readings were subsequently obtained over the following 48 h prior to single dose administration of 20 nmol/kg G108 on day 5. On day 8, all mice were removed from the metabolic cages and returned to their home cages. A parallel study was then carried out whereby venous blood samples were collected at baseline and daily following single dosing with either 7.5 nmol/kg or 20 nmol/kg G018. Blood samples were transferred on ice immediately for centrifugation as previously described. Samples were stored at −80°C prior to measurement of plasma total amino acids.
To measure energy expenditure, DIO mice were placed into a Comprehensive Laboratory Animal Monitoring System (CLAMS, Columbus instruments, Columbus, US). Measurement of oxygen consumption and carbon dioxide production was taken at 20 min intervals. Food intake was also measured electronically without the need to remove food. Each cohort of mice were placed into the CLAMS system with daily weighing of body weight prior to administration of the allocated treatment at 9 am. Following administration of treatment, mice were placed back into the metabolic cages with ad libitum access to their allocated diet. For studies with the low amino acid (LAA) diet in metabolic cages, animals were not removed from the metabolic cages until the end of the experiment and had ad libitum access to either standard protein or low amino acid diets. Feed efficiency was calculated as mg body weight change per kJ consumed.
Plasma total amino acids were measured using fluorometric-based ELISA kits as described (MAK002, Sigma-Aldrich, Ab65347, Abcam). Plasma FGF21 was measured using a fluorescent based ELISA kit (ab229382, Abcam). Plasma triglyceride, cholesterol and leptin were measured using ELISA kits (ab65336, ab65390, ab199082, Abcam). Individual amino acids were measured using Gas Chromatography/Mass Spectrometry (WellChild laboratory, Evelina Children’s Hospital, St Thomas’s Hospital, London).

lean C57BL/6 mice = assay: Hepatic gene expression 24 h after a single dose in lean mice; assay type: in vivo, mouse; details: 20 nmol/kg single s.c. dose, liver at 24 h, qPCR, n = 4/group
Description: Twelve weight-matched 12-week-old lean C57BL/6 mice were fasted for 2 h prior to a single intraperitoneal injection of 10 nmol/kg dose of G108 diluted in sterile HPLC water (pH > 7), or vehicle control alone. Tail venesection was performed at baseline, 15, 30, 60 and 120 min and blood glucose measured using a handheld GlucoRx meter. For hepatic carbohydrate and amino acid metabolism gene expression analysis, weight-matched 12-week-old lean C57BL/6 mice were subcutaneously administered with 20 nmol/kg G108 diluted in sterile HPLC water (pH > 7), or vehicle control via subcutaneous injection at 9 am (N = 8). All animals had ad libitum access to RM1 diet and water. Liver tissue was dissected at 24 h and stored at −80°C prior to hepatic gene expression analysis.
RNA was extracted from liver, muscle and BAT tissue using 1 mL TRIzol added to samples prior to homogenisation within a mechanical homogeniser for 2–3 min. Chloroform was added to each individual sample prior to gentle shaking and centrifugation at 16000 × g for 15 min. […] RNA was quantified in addition to quality assessed using a NanoDrop spectrophotometer and 1 μg of RNA was then used for the synthesis of cDNA using the iScript cDNA synthesis Kit (Bio-Rad). Quantitative polymerase chain reaction (qPCR) was then undertaken using the SYBR-Green method using KiCqStart SYBR Green primers (Merck).

Gcgr^Δliver mice = assay: Chronic study in hepatic-specific glucagon receptor knockout mice; assay type: in vivo, mouse; details: 5 nmol/kg s.c. daily, 14 days, n = 7-8/group
Description: Age-matched (12-week-old) Gcgr^flox/flox:Alb-Cre + (Gcgr^Δliver) and Gcgr^flox/flox:Alb-Cre- (control) mice were subcutaneously administered daily with either 5 nmol/kg G108 or vehicle control (HPLC water) for 14 days (N = 7–8/group). All mice were single-housed and had ad libitum access to water and a standard (20 kcal%) protein diet (diet D11112201, Table S2). Food intake and body weight were measured daily prior to administration of peptide each day. EchoMRI analysis was carried out at baseline and day 14. Tail venesection was carried out 4-h post-dose on day 14. Blood samples were immediately transferred on ice, centrifuged at 2800 × g for 10 min prior to plasma total amino acid analysis.
Food intake was measured daily using a dedicated weighing scale and topped up accordingly. Body weight was recorded at 9 am daily or every 48 h using the same weighing scale. Body composition was measured using an EchoMRI analyser at various timepoints during chronic studies. […] Each scan lasted approximately 90 s where lean mass and fat mass were recorded in grams. […]
Plasma total amino acids were measured using fluorometric-based ELISA kits as described (MAK002, Sigma-Aldrich, Ab65347, Abcam). Plasma FGF21 was measured using a fluorescent based ELISA kit (ab229382, Abcam). Plasma triglyceride, cholesterol and leptin were measured using ELISA kits (ab65336, ab65390, ab199082, Abcam). […]

CC[C@H](C)[C@H](NC(=O)[C@H](Cc1ccccc1)NC(=O)[C@H](CCC(=O)O)NC(=O)[C@H](CCC(N)=O)NC(=O)[C@H](C)NC(=O)[C@H](CCCNC(=N)N)NC(=O)[C@H](CCCCN)NC(=O)[C@H](C)NC(=O)[C@H](CC(=O)O)NC(=O)[C@H](CC(C)C)NC(=O)[C@H](Cc1ccc(O)cc1)NC(=O)[C@H](CCCNC(=N)N)NC(=O)[C@H](CO)NC(=O)[C@H](Cc1ccc(O)cc1)NC(=O)[C@H](CC(=O)O)NC(=O)[C@H](CO)NC(=O)[C@@H](NC(=O)[C@H](Cc1ccccc1)NC(=O)[C@@H](NC(=O)CNC(=O)[C@H](Cc1c[nH]cn1)NC(=O)C(C)(C)NC(=O)[C@@H](N)Cc1c[nH]cn1)[C@@H](C)O)[C@@H](C)O)C(=O)N[C@@H](CCC(=O)O)C(=O)N[C@@H](Cc1c[nH]c2ccccc12)C(=O)N[C@@H](CC(C)C)C(=O)N[C@@H](CC(C)C)C(=O)N[C@@H](CCC(N)=O)C(=O)N[C@@H](CO)C(=O)N[C@@H](Cc1c[nH]cn1)C(=O)N[C@@H](Cc1c[nH]cn1)C(=O)N[C@@H](CCC(N)=O)C(=O)N[C@@H](Cc1c[nH]cn1)C(=O)N[C@@H](Cc1c[nH]cn1)C(=O)N1CCC[C@H]1C(=O)N[C@@H](CO)C(=O)N1CCC[C@H]1C(=O)N1CCC[C@H]1C(=O)N1CCC[C@H]1C(=O)N[C@@H](CCCCNC(=O)[C@H](CC(N)=O)NC(=O)CC[C@H](NC(=O)CCCCCCCCCCCCCCCCC(=O)O)C(=O)O)C(N)=O [Peptide G108] (H-H[Aib]HGTFTSDYSRYLDAKRAQEFIEWLLQSHHQHHPSPPPK([Asn-γGlu-C18 diacid])-NH2; N-terminus and C-terminus assumed)
Tmax [1]: 24 h | plasma total amino acids after a single injection (C57BL/6 mice; single 7.5 nmol/kg dose, n = 10/group): transient reduction in plasma amino acids | energy expenditure after a single injection (C57BL/6 mice; single 7.5 nmol/kg dose, up to 48 h, n = 10/group): trend toward increased EE | plasma total amino acids after a single injection (C57BL/6 mice; single 20 nmol/kg dose, n = 9-10/group): sustained reduction in plasma amino acids | energy expenditure after a single injection (C57BL/6 mice; single 20 nmol/kg dose, up to 72 h, n = 9-10/group): significantly increased EE response | hypoaminoacidemia and EE in mice fed the HP diet (C57BL/6 mice; single 7.5 and 20 nmol/kg doses, HP diet): protected against G108-stimulated hypoaminoacidemia and EE at both doses | expression of hepatic amino acid catabolism (urea cycle) genes (lean C57BL/6 mice): increased the expression of a number of genes involved in amino acid catabolism | expression of hepatic gluconeogenic enzymes (lean C57BL/6 mice): increased the expression of hepatic gluconeogenic enzymes | effects on body weight, lean mass and plasma amino acids in mice lacking the hepatic GCGR (Gcgr^Δliver mice): completely refractory
